Legend:
[1] = biological target: T1, hM1 mAChR (Homo sapiens, UniProt P11229); test: [3H]NMS inhibition radioligand binding, hM1 in CHO-K1 cell membranes; details: [3H]NMS, CHO-K1 cell membranes; mean ± S.E.M.
T1 construct: expressed in transfected cells; host or cells: CHO-K1 (membrane preparation)
T1 sequence (P11229 1-460): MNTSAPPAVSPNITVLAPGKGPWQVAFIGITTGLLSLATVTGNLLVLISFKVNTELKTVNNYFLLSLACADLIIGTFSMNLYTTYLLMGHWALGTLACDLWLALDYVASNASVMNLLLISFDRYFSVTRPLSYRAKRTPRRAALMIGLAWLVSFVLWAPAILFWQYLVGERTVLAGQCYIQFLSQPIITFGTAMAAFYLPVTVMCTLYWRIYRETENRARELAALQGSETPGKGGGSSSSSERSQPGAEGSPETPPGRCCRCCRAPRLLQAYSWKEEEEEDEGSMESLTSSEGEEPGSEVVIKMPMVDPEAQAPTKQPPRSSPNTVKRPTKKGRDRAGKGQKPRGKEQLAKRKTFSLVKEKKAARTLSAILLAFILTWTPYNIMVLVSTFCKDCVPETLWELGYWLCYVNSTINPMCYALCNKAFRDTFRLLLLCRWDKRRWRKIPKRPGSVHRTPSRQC

[2] = biological target: T2, hM5 mAChR (Homo sapiens, UniProt P08912); test: [3H]NMS inhibition radioligand binding, hM5 in CHO-K1 cell membranes; details: [3H]NMS, CHO-K1 cell membranes; mean ± S.E.M.
T2 construct: expressed in transfected cells; host or cells: CHO-K1 (membrane preparation)
T2 sequence (P08912 1-532): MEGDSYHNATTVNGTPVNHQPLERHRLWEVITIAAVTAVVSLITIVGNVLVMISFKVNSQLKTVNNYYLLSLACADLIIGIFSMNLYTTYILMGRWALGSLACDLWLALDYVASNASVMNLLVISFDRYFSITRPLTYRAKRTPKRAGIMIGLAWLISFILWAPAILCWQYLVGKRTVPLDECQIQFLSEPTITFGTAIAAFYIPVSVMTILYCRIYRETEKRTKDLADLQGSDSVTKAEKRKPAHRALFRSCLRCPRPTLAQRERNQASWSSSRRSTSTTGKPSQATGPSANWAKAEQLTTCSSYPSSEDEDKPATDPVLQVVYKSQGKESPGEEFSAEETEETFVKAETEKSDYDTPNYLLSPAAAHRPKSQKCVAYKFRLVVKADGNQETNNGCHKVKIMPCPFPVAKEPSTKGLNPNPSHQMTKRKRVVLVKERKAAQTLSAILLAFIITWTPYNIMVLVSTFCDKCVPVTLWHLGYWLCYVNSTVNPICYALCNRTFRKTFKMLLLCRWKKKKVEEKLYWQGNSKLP

`C[N+](C)(C)C[C@@H]1COC[C@](c2ccccc2)(C2CCCCC2)O1.[I-]` (relative stereo) [3b, 1-((2R*,6R*)-6-Cyclohexyl-6-phenyl-1,4-dioxan-2-yl)-N,N,N-trimethylmethanaminium Iodide] was tested, and the “pKi hM1” value [1] was 9.28 ± 0.19 and the “pKi hM5” value [2] was 8.41 ± 0.1.

Source: paper PMC8007111, “Novel Potent Muscarinic Receptor Antagonists: Investigation on the Nature of Lipophilic Substituents in the 5- and/or 6-Positions of the 1,4-Dioxane Nucleus” (Journal of Medicinal Chemistry, 2020)
